Where two headings read alike, the source gives them in different places.

Data set [1] relates to wild-type AB-line zebrafish. The following applies: 3 dpf to 5 dpf, 35° C.; survival rate>90% and teratogenicity<20%. Here is the method:
The zebrafish model is a wild-type AB-line zebrafish from College of Biotechnology and Pharmaceutical Engineering, Nanjing Tech University, and is carried out by a natural mating reproduction method, with 30 zebrafish of 2 dpf in each experimental group. The zebrafish is fed in fish culture water at 28° C. (water quality:200 mg of instant sea salt and CaCO3 are added into 1 L of reverse osmosis water with a conductivity of 480 uS/cm to 510 uS/cm, a pH value of 6.9 to 7.2, and a hardness of 53.7 mg/L to 71.6 mg/L), and the feeding management meets the requirements of international AAALAC certification.
240 3 dpf wild-type AB-line zebrafish were randomly selected in an 8-well plate, with 30 zebrafish in each well, and 3 mL of fish culture water in each well, the cordycepin was diluted according to a maximum lethal dose, dissolved in DMSO, and added into each well according to a concentration gradient (the maximum lethal dose was diluted by 100 times, in which 8 concentration gradient values were taken for the experiment), and meanwhile, a normal control group, a solvent control group G (5% glucose) and a solvent control group D (DMSO) were set. During the experiment, the zebrafish in each group were cultured at 35° C., after the zebrafish were treated to be 5 dpf with a sample to be tested, lethal and developmental malformation conditions of the zebrafish in different doses were investigated respectively, and a maximum tolerance dose (MTD) of the sample to be tested to normal zebrafish was determined under a concentration when survival rate>90% and teratogenicity<20%.

The test system of data set [2] is gastric cancer cell line AGS. Kind of data set: MTT proliferation, gastric cancer cell line AGS. Type of data set: cell-based. The following applies: read-out: IC50 (μM) in gastric cancer cells, AGS. Here is the method: (§1) The method for determining inhibitory activities of the compounds on the proliferation of tumor cells by an MTT method is as follows: a bottle of cells in a good state in an exponential growth phase is added with 0.25% trypsin digestive juice, the digestion makes adherent cells fall off, with 2 to 4×10^4 cells/mL, and a cell suspension is prepared. The cell suspension is inoculated on a 96-well plate, with 90 μL/well, and cultured in a constant-temperature CO2 incubator for 24 hours. The prepared compounds are added for testing, with 10 μL/well, and cultured for 72 hours. An MTT reagent is added into a 96-well plate, with 10 μL/well, and reacts in an incubator for 4 hours to absorb a supernatant, and then dimethyl sulfoxide is added, with 100 μL/well. After a crystal is dissolved, an absorbance of each well at a wavelength of 570 nm is measured by an enzyme-linked immunosorbent assay instrument, and a cell inhibition rate is calculated. An S curve is made with a compound concentration and a corresponding inhibition rate. Therefore, IC50 of a corresponding compound is obtained.
(§2) Anti-tumor dose-effect relationship curves of the cordycepin and 40 compounds prepared in gastric cancer cell lines AGS and BGC-823 were analyzed by an MTT experimental method.

For data set [3], the system named is gastric cancer cell line BGC-823. Kind of data set: MTT proliferation, gastric cancer cell line BGC-823. Type of data set: cell-based. The following applies: read-out: IC50 (μM) in gastric cancer cells, BGC-823. Here is the method:
as §1, §2

Data set [4] concerns small cell lung cancer cell line H446. Kind of data set: MTT proliferation, small cell lung cancer cell line H446. The following applies: for IC50: read-out: IC50 (μM) of compounds in small cell lung cancer cells, H446. It counts as cell-based. Here is the method:
as §1
(§3) Anti-tumor dose-effect relationship curves of cordycepin and compounds 1, 2, 4, 5, 7, 8, 10, 12, 16, 18, 21, 23, 24, 35 and 38 in small cell lung cancer cell lines H1048, H446 and H69 were analyzed by an MTT experimental method.

Data set [5] has as its system small cell lung cancer cell line H1048. Kind of data set: MTT proliferation, small cell lung cancer cell line H1048. It counts as cell-based. The following applies: read-out: IC50 (μM) of compounds in small cell lung cancer cells, H1048. Here is the method: as §1, §3
Data set [6] deals with small cell lung cancer cell line H69. Kind of data set: MTT proliferation, small cell lung cancer cell line H69. The following applies: read-out: IC50 (μM) of compounds in small cell lung cancer cells, H69. Type of data set: cell-based. Here is the method: as §1, §3
The mark [7] stands for this setting: Homo sapiens, MTT, 72 hours, BGC-823.
Setting [8] is: Homo sapiens, NCI-H446, 72 h, MTT, 72 hours, H446.
Setting [9] is: Homo sapiens, NCI-H1048, 72 h, MTT, 72 hours, H1048.

The term IC50 denotes the concentration that gives 50% inhibition. In the case of `CC(C)Nc1nc2c(N)ncnc2n1[C@@H]1O[C@H](COP(=O)(O)O)CC1O` (stereo partly shown) [Compound 39, (5-(6-amino-8-(isopropylamino)-9H-purin-9-yl)-4-hydroxytetrahydrofuran-2-yl)dihydromethyl phosphate], in data set [1], the “Maximum tolerance dose (MTD) in zebrafish model” value (shortened to “Maximum tolerance dose (MTD)”) was determined as 28 µM. The IC50 in data set [2] (MTT, 72 hours, AGS) stood at 187 µM; in data set [3] (setting [7]), 167 µM.

Take `CC(C)OC(=O)C(C)NP(=O)(COC[C@@H]1CC(O)[C@H](n2cnc3c(N)nc(F)nc32)O1)Oc1ccccc1` (stereo partly shown) [Compound 20, isopropyl((((5-(6-amino-2-fluoro-9H-purin-9-yl)-4-hydroxytetrahydrofuran-2-yl)methoxy)methyl)(phenoxy)phosphoryl)alanine ester]: in data set [1], the “Maximum tolerance dose (MTD)” value stood at 0.12 µM. Further, the IC50 worked out at 0.94 µM in data set [2] (72 h) and 1.37 µM in data set [3] (Homo sapiens, BGC-823, 72 h).

With `Nc1nc(F)nc2c1ncn2C1OC(COC2CC(CO)C(O)C2O)CC1O` (stereo not shown) [Compound 36, 3-((5-(6-amino-2-fluoro-9H-purin-9-yl)-4-hydroxytetrahydrofuran-2-yl)methoxy)-5-(hydroxymethyl)cyclopentane-1,2-diol], the “Maximum tolerance dose (MTD)” value in data set [1] amounted to 0.02 µM. The IC50 was determined as 103 µM in data set [2] (MTT, 72 hours, AGS) and 90.2 µM in data set [3] (setting [7]).

`Nc1nc(F)nc2c1ncn2[C@@H]1O[C@H](COP(=O)(O)O)CC1O` (stereo partly shown) [Compound 13, (5-(6-amino-2-fluoro-9H-purine-9-yl)-4-hydroxytetrahydrofuran-2-yl)dihydromethyl phosphate]: the “Maximum tolerance dose (MTD)” value in data set [1] was 0.05 µM. Further, the 50% inhibitory concentration (IC50) is 32.5 µM in data set [2] (MTT, 72 hours, AGS) and 36.8 µM in data set [3] (setting [7]).

Take `COC(=O)C(NP(=O)(OC[C@@H]1CC(O)[C@H](n2cnc3c(N)ncnc32)O1)Oc1ccccc1)C(C)C` (stereo partly shown) [Compound 6]: the “Maximum tolerance dose (MTD)” value in data set [1] was 384 µM. For the same compound, the IC50 in data set [2] (MTT, 72 hours, AGS) is 66.8 µM; in data set [3] (setting [7]), 73.2 µM.

As to `CC(C)(C)C(=O)OCOP(=O)(COC[C@]1(N=[N+]=[N-])CC(O)[C@H](n2cnc3c(N)ncnc32)O1)OCOC(=O)C(C)(C)C` (stereo partly shown) [Compound 37], the “Maximum tolerance dose (MTD)” value in data set [1] amounted to 0.17 µM. Moreover, the half-maximal inhibitory concentration (IC50) in data set [2] (MTT, 72 hours, AGS) was determined as 64.2 µM; in data set [3] (setting [7]), 56.1 µM.

For `O=C(Nc1ncnc2c1ncn2[C@@H]1O[C@H](CO)CC1O)C1CCCC1` (stereo partly shown) [Compound 11], the “Maximum tolerance dose (MTD)” value in data set [1] was 75 µM. In addition, the IC50 turned out to be 13 µM in data set [2] (MTT, 72 hours, AGS) and 10.3 µM in data set [3] (setting [7]).

`[N-]=[N+]=N[C@@H]1C(O)[C@H](n2cnc3c(N)ncnc32)O[C@@H]1COP(=O)(O)O` (stereo partly shown) [Compound 25, (5-(6-amino-9H-purine-9-yl)-3-azide-4-hydroxytetrahydrofuran-2-yl)dihydromethyl phosphate]: in data set [1], the “Maximum tolerance dose (MTD)” value is 12 µM. In addition, the IC50 was 47.6 µM in data set [2] (MTT, 72 hours, AGS) and 58.5 µM in data set [3] (setting [7]).

Consider `CC(C)OC(=O)C(C)NP(=O)(COC[C@@H]1CC(O)[C@H](n2cnc3c(N)ncnc32)O1)Oc1ccccc1` (stereo partly shown) [Compound 7], for which the IC50 in data set [4] (Homo sapiens, NCI-H446, 72 h) worked out at 20.5 µM; in data set [5] (Homo sapiens, NCI-H1048, 72 h) it was 12.1 µM; in data set [6] (72 h), 9.59 µM; in data set [2] (72 h), 2.46 µM; in data set [3] (Homo sapiens, BGC-823, 72 h), 1.61 µM. The “Maximum tolerance dose (MTD)” value in data set [1] came out at 62 µM.

Turning to “(5-(2-((E)-2-bromocarbonyl)-6-(isonicotinamide)-9H-purin-9-yl)-4-hydroxytetrahydrofuran-2-yl)dihydromethyl phosphate [Compound 35]”, the IC50 in data set [4] (MTT, 72 hours, H446) is 21.4 µM; in data set [5] (MTT, 72 hours, H1048), 32.6 µM; in data set [6] (MTT, 72 hours, H69), 21.5 µM; in data set [2] (MTT, 72 hours, AGS), 69.4 µM; in data set [3] (MTT, 72 hours, BGC-823), 71 µM. Besides, in data set [4] (stated in words for all three lines H1048, H446 and H69, MTT), the “killing effect on the three lines of cells in vitro” value was “strong killing effect”. Besides, the “Maximum tolerance dose (MTD)” value in data set [1] amounted to 0.025 µM.

As to `Nc1ncnc2c1ncn2[C@@H]1O[C@H](COP(=O)(O)O)CC1O` (stereo partly shown) [Compound 2, (5-(6-amino-9H-purine-9-yl)-4-hydroxytetrahydrofuran-2-yl)dihydromethyl phosphate], the IC50 came to 76.8 µM in data set [4] (setting [8]); 55.3 µM in data set [5] (setting [9]); 50.2 µM in data set [6] (MTT, 72 hours, H69); 142 µM in data set [2] (MTT, 72 hours, AGS); 209 µM in data set [3] (setting [7]). Moreover, the “Maximum tolerance dose (MTD)” value in data set [1] came out at 845 µM.

As for `CC(C)C(=O)OCOP(=O)(COC[C@@H]1CC(O)[C@H](n2cnc3c(N)ncnc32)O1)OCOC(=O)C(C)C` (stereo partly shown) [Compound 5], the IC50 in data set [4] (setting [8]) turned out to be 43.3 µM; in data set [5] (setting [9]), 40.9 µM; in data set [6] (MTT, 72 hours, H69), 53.4 µM; in data set [2] (MTT, 72 hours, AGS) it was 72.7 µM; in data set [3] (setting [7]) it was 91.5 µM. Further, the “Maximum tolerance dose (MTD)” value in data set [1] came out at 525 µM.

For the compound `NC1=CS(=O)(=O)OC12C[C@@H](COP(=O)(O)O)O[C@H]2n1cnc2c(N)ncnc21` (stereo partly shown) [Compound 9, (4-amino-6-(6-amino-9H-purin-9-yl)-2,2-dioxide-1,7-dioxane-2-thiaspiro[4.4]non-3-ene-8-yl)dihydromethyl phosphate], in data set [1], the “Maximum tolerance dose (MTD)” value was 14 µM. Further, the IC50 worked out at 0.46 µM in data set [2] (MTT, 72 hours, AGS) and 1.24 µM in data set [3] (setting [7]).

(Values after patent US12215123B2, “Cordycepin-based derivatized compound with anti-tumor effect” (NANJING TECH UNIVERSITY, priority 2022, dated 2025).)
